Q: For `NC(N)=S`, which solubility (mole fraction) (in ethanol, 283.15 K) is on record?
A: 0.0185

Q: And the solubility (mole fraction) (in ethanol, 288.15 K)?
A: 0.0206

Q: And the solubility (mole fraction) (in ethanol, 293.15 K)?
A: 0.0222

Q: What about the solubility (mole fraction) (in ethanol, 298.15 K) of the same compound?
A: 0.025

Q: And the solubility (mole fraction) (in ethanol, 303.15 K)?
A: 0.027

Q: And the solubility (mole fraction) (in ethanol, 308.15 K)?
A: 0.0315

Q: And the solubility (mole fraction) (in ethanol, 313.15 K)?
A: 0.0348

Q: And the solubility (mole fraction) (in methanol, 283.15 K)?
A: 0.0421

Q: And the solubility (mole fraction) (in methanol, 288.15 K)?
A: 0.046

Q: And the solubility (mole fraction) (in methanol, 293.15 K)?
A: 0.0501

Q: What about the solubility (mole fraction) (in methanol, 298.15 K) of the same compound?
A: 0.054

Q: And the solubility (mole fraction) (in methanol, 303.15 K)?
A: 0.061

Q: What about the solubility (mole fraction) (in methanol, 308.15 K) of the same compound?
A: 0.065

Q: What about the solubility (mole fraction) (in methanol, 313.15 K) of the same compound?
A: 0.0744

Q: What about the solubility (mole fraction) (in n-propanol, 283.15 K) of the same compound?
A: 0.0185

Q: And the solubility (mole fraction) (in n-propanol, 288.15 K)?
A: 0.0206

Q: And the solubility (mole fraction) (in n-propanol, 293.15 K)?
A: 0.0222

Q: And the solubility (mole fraction) (in n-propanol, 298.15 K)?
A: 0.025

Q: And the solubility (mole fraction) (in n-propanol, 303.15 K)?
A: 0.027

Q: What about the solubility (mole fraction) (in n-propanol, 308.15 K) of the same compound?
A: 0.0315

Q: What about the solubility (mole fraction) (in n-propanol, 313.15 K) of the same compound?
A: 0.0348

From BigSolDB 2.1
